# Like-named read-outs stand apart in the source and are kept apart here.
# Assays:
# Test in all cases: In vitro MIC, broth dilution
# Assay type in all cases: cell-based
# [1] = system: S. aureus GC 4536; details: Staphylococcus aureus, GC4536
# Method in brief: (§1)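 Lowest concentration blocking bacterial growth, read after 18 h at 35 °C in ambient air. Mueller-Hinton II broth dilution, 5×10^5 CFU/ml inoculum, drug range 64-0.06 μg/ml.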
# [2] = system: CNS GC 4537
# Method in brief: as §1
# [3] = system: CNS GC 4547
# Method in brief: as §1
# [4] = system: E. faecalis GC 4555; details: Enterococcus faecalis, GC4555
# Method in brief: as §1
# [5] = system: S. aureus GC 1131; details: Staphylococcus aureus, GC1131
# Method in brief: as §1
# [6] = system: E. faecalis GC 2242; details: Enterococcus faecalis, GC2242
# Method in brief: as §1
# [7] = system: S. aureus GC 2216; details: Staphylococcus aureus, GC2216
# Method in brief: as §1
# [8] = system: CNS GC 4538
# Method in brief: as §1
# [9] = system: E. faecalis GC 842; details: Enterococcus faecalis, GC842
# Method in brief: as §1
# [10] = system: K. pneumoniae GC 4534; details: Klebsiella pneumoniae, GC4534
# [11] = system: E. coli GC 2203; details: Escherichia coli, GC2203
# [12] = system: M. morganii GC 4531; details: Morganella morganii, GC4531
# [13] = system: S. marcescens GC 4077; details: Serratia marcescens, GC4077
# [14] = system: P. aeruginosa GC 2214; details: Pseudomonas aeruginosa, GC2214
# [15] = system: E. coli GC 4559; details: Escherichia coli, GC4559
# [16] = system: E. coli GC 3226; details: Escherichia coli, GC3226
# [17] = system: P. aeruginosa GC 4532; details: Pseudomonas aeruginosa, GC4532
# [18] = system: E. coli GC 4560; details: Escherichia coli, GC4560
# [19] = system: E. cloacae GC 3783; details: Enterobacter cloacae, GC3783
# [20] = system: C. albicans GC 3066; details: Candida albicans, GC3066
# [21] = S. aureus GC 4536, read-out: MIC
# [22] = E. faecalis GC 4555, read-out: MIC
# [23] = S. aureus GC 1131, read-out: MIC
# [24] = E. faecalis GC 2242, read-out: MIC
# [25] = S. aureus GC 2216, read-out: MIC
# [26] = E. faecalis GC 842, read-out: MIC
# [27] = K. pneumoniae GC 4534, read-out: MIC
# [28] = M. morganii GC 4531, read-out: MIC
# [29] = S. marcescens GC 4077, read-out: MIC
# [30] = P. aeruginosa GC 2214, read-out: MIC
# [31] = P. aeruginosa GC 4532, read-out: MIC
# [32] = E. cloacae GC 3783, read-out: MIC
# [33] = C. albicans GC 3066, read-out: MIC
SMILES,"MIC [1, 21] [µg/mL]","MIC ([2]; CNS GC 4537, read-out: MIC) [µg/mL]","MIC ([3]; CNS GC 4547, read-out: MIC) [µg/mL]","MIC [4, 22] [µg/mL]","MIC [5, 23] [µg/mL]","MIC [6, 24] [µg/mL]","MIC [7, 25] [µg/mL]","MIC ([8]; CNS GC 4538, read-out: MIC) [µg/mL]","MIC [9, 26] [µg/mL]","MIC [10, 27] [µg/mL]","MIC ([11]; E. coli GC 2203, read-out: MIC) [µg/mL]","MIC [12, 28] [µg/mL]","MIC [13, 29] [µg/mL]","MIC [14, 30] [µg/mL]","MIC ([15]; E. coli GC 4559, read-out: MIC) [µg/mL]","MIC ([16]; E. coli GC 3226, read-out: MIC) [µg/mL]","MIC [17, 31] [µg/mL]","MIC ([18]; E. coli GC 4560, read-out: MIC) [µg/mL]","MIC [19, 32] [µg/mL]","MIC [20, 33] [µg/mL]",also measured
"COc1ccc(Cn2c(=O)ccn([C@@H]3OC([C@H](O)[C@H](NCCCNC(=O)[C@@H](N)CCCCN)C(=O)OC(C)(C)C)[C@@H](O[Si](C)(C)C(C)(C)C)[C@H]3O[Si](C)(C)C(C)(C)C)c2=O)cc1 (stereo partly drawn) [Example 19, tert-Butyl (2S,3R)-3-[(3R,4R,5R)-3,4-bis{[tert-butyl(dimethyl)silyl]oxy}-5-(3-(4-methoxybenzyl)-2,4-dioxo-3,4-dihydro-1(2H)-pyrimidinyl)tetrahydro-2-furanyl]-2-[(3-{[(2S)-2,6-diaminohexanoyl]amino}propyl)amino]-3-hydroxypropanoate]",8,8,16,8,4,8,8,8,8,> 128,128,128,128,128,> 128,128,128,8,> 128,> 128,–
"COc1ccc(Cn2c(=O)ccn([C@@H]3OC([C@H](O)[C@H](NCCCNC(=O)[C@H](CCC(=O)OC(C)(C)C)NC(=O)OCc4ccccc4)C(=O)OC(C)(C)C)[C@@H](O[Si](C)(C)C(C)(C)C)[C@H]3O[Si](C)(C)C(C)(C)C)c2=O)cc1 (stereo partly drawn) [Example 20, tert-Butyl (5S,12S)-12-[(R)-[(3R,4R,5R)-3,4-bis{[tert-butyl(dimethyl)silyl]oxy}-5-(3-(4-methoxybenzyl)-2,4-dioxo-3,4-dihydro-1(2H)-pyrimidinyl)tetrahydro-2-furanyl](hydroxy)methyl]-5-[3-(tert-butoxy)-3-oxopropyl]-3,6-dioxo-1-phenyl-2-oxa-4,7,11-triazatridecan-13-oate]",–,–,–,–,–,–,–,–,–,–,–,–,–,–,–,–,–,–,–,–,MIC [1]: > 128 µg/mL; MIC [2]: > 128 µg/mL; MIC [3]: > 128 µg/mL; MIC [4]: > 128 µg/mL; MIC [5]: > 128 µg/mL; MIC [6]: > 128 µg/mL; MIC [7]: > 128 µg/mL; MIC [8]: > 128 µg/mL; MIC [9]: > 128 µg/mL; MIC [10]: > 128 µg/mL; MIC [11]: > 128 µg/mL; MIC [12]: > 128 µg/mL; MIC [13]: > 128 µg/mL; MIC [14]: 128 µg/mL; MIC [15]: > 128 µg/mL; MIC [16]: > 128 µg/mL; MIC [17]: 128 µg/mL; MIC [18]: > 128 µg/mL; MIC [19]: > 128 µg/mL; MIC [20]: 128 µg/mL
"COc1ccc(Cn2c(=O)ccn([C@@H]3OC([C@H](O)[C@H](NCCCNC(=O)[C@@H](N)CCC(=O)OC(C)(C)C)C(=O)OC(C)(C)C)[C@@H](O[Si](C)(C)C(C)(C)C)[C@H]3O[Si](C)(C)C(C)(C)C)c2=O)cc1 (stereo partly drawn) [Example 21, tert-Butyl (4S)-4-amino-5-[(3-{[(1S,2R)-2-[(3R,4R,5R)-3,4-bis{[tert-butyl(dimethyl)silyl]oxy}-5-(3-(4-methoxybenzyl)-2,4-dioxo-3,4-dihydro-1(2H)-pyrimidinyl)tetrahydro-2-furanyl]-1-(tert-butoxycarbonyl)-2-hydroxyethyl]amino}propyl)amino]-5-oxopentanoate]",> 128,> 128,> 128,> 128,> 128,> 128,> 128,> 128,> 128,> 128,> 128,> 128,> 128,> 128,> 128,> 128,> 128,> 128,> 128,> 128,–
"COc1ccc(Cn2c(=O)ccn([C@@H]3OC([C@H](O)[C@H](NC(=O)CCCCCCCCCCNC(=O)OCC4c5ccccc5-c5ccccc54)C(=O)OC(C)(C)C)[C@@H](O[Si](C)(C)C(C)(C)C)[C@H]3O[Si](C)(C)C(C)(C)C)c2=O)cc1 (stereo partly drawn) [Example 22, tert-Butyl (2S,3R)-3-[(3R,4R,5R)-3,4-bis{[tert-butyl(dimethyl)silyl]oxy}-5-(3-(4-methoxybenzyl)-2,4-dioxo-3,4-dihydro-1(2H)-pyrimidinyl)tetrahydro-2-furanyl]-2-[(11-{[(9H-fluoren-9-ylmethoxy)carbonyl]amino}undecanoyl)-amino]-3-hydroxypropanoate]",–,–,–,–,–,–,–,–,–,–,–,–,–,–,–,–,–,–,–,–,MIC [1]: > 128 µg/mL; MIC [2]: > 128 µg/mL; MIC [3]: > 128 µg/mL; MIC [4]: > 128 µg/mL; MIC [5]: > 128 µg/mL; MIC [6]: > 128 µg/mL; MIC [7]: > 128 µg/mL; MIC [8]: > 128 µg/mL; MIC [9]: > 128 µg/mL; MIC [10]: > 128 µg/mL; MIC [11]: > 128 µg/mL; MIC [12]: > 128 µg/mL; MIC [13]: > 128 µg/mL; MIC [14]: > 128 µg/mL; MIC [15]: > 128 µg/mL; MIC [16]: > 128 µg/mL; MIC [17]: > 128 µg/mL; MIC [18]: > 128 µg/mL; MIC [19]: > 128 µg/mL; MIC [20]: > 128 µg/mL
"COc1ccc(Cn2c(=O)ccn([C@@H]3OC([C@H](O)[C@H](NC(=O)CCCCCCCCCCN)C(=O)OC(C)(C)C)[C@@H](O[Si](C)(C)C(C)(C)C)[C@H]3O[Si](C)(C)C(C)(C)C)c2=O)cc1 (stereo partly drawn) [Example 23, tert-Butyl (2S,3R)-2-[(11-aminoundecanoyl)amino]-3-[(3R,4R,5R)-3,4-bis{[tert-butyl(dimethyl)silyl]oxy}-5-(3-(4-methoxybenzyl)-2,4-dioxo-3,4-dihydro-1(2H)-pyrimidinyl)tetrahydro-2-furanyl]-3-hydroxypropanoate]",128,128,> 128,128,> 128,128,128,128,128,> 128,> 128,128,128,128,> 128,> 128,128,128,> 128,128,–
"COc1ccc(Cn2c(=O)ccn([C@@H]3OC([C@H](O)[C@H](NCCCNC(=O)CCCCCCCCCCNC(=O)OCC4c5ccccc5-c5ccccc54)C(=O)OC(C)(C)C)[C@@H](O[Si](C)(C)C(C)(C)C)[C@H]3O[Si](C)(C)C(C)(C)C)c2=O)cc1 (stereo partly drawn) [Example 24, tert-Butyl (21S)-21-[(R)-[(3R,4R,5R)-3,4-bis{[tert-butyl(dimethyl)silyl]oxy}-5-(3-(4-methoxybenzyl)-2,4-dioxo-3,4-dihydro-1(2H)-pyrimidinyl)tetrahydro-2-furanyl](hydroxy)methyl]-1-(9H-fluoren-9-yl)-3,15-dioxo-2-oxa-4,16,20-triazadocosan-22-oate]",–,–,–,–,–,–,–,–,–,–,–,–,–,–,–,–,–,–,–,–,MIC [1]: > 128 µg/mL; MIC [2]: > 128 µg/mL; MIC [3]: > 128 µg/mL; MIC [4]: > 128 µg/mL; MIC [5]: > 128 µg/mL; MIC [6]: 128 µg/mL; MIC [7]: > 128 µg/mL; MIC [8]: > 128 µg/mL; MIC [9]: > 128 µg/mL; MIC [10]: > 128 µg/mL; MIC [11]: > 128 µg/mL; MIC [12]: 128 µg/mL; MIC [13]: 128 µg/mL; MIC [14]: 128 µg/mL; MIC [15]: > 128 µg/mL; MIC [16]: > 128 µg/mL; MIC [17]: 128 µg/mL; MIC [18]: 128 µg/mL; MIC [19]: > 128 µg/mL; MIC [20]: 128 µg/mL
COc1ccc(Cn2c(=O)ccn([C@@H]3OC([C@H](O)[C@H](NCCCNC(=O)CCCCCCCCCCN)C(=O)OC(C)(C)C)[C@@H](O[Si](C)(C)C(C)(C)C)[C@H]3O[Si](C)(C)C(C)(C)C)c2=O)cc1 (some centres unmarked) [Example 25],128,64,128,128,128,64,128,64,128,> 128,> 128,128,128,128,> 128,> 128,128,128,> 128,128,–
